Measurements taken from ChEMBL document CHEMBL4418295, “Method for identifying modulators of GPCR GPR1 function” (2014).

Molecular target: T1, Chemerin-like receptor 2 (Homo sapiens, UniProt P46091)
T1 sequence (P46091 whole entry): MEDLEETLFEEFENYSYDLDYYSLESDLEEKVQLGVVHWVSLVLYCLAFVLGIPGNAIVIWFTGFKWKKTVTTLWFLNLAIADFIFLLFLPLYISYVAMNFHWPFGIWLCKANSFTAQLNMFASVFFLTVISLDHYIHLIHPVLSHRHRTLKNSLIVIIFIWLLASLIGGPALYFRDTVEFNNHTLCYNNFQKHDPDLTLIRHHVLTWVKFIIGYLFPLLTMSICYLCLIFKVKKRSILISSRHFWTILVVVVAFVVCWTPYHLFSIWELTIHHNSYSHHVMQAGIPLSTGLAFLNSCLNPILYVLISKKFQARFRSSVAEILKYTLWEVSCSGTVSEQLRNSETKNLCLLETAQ
Test: Agonist activity at recombinant human GPR1 expressed in CHOK1 PathHunter cells assessed as beta-arrestin 2 recruitment incubated for 90 mins by luminescence assay
Type: cell-based

In the case of `CC[C@H](C)[C@H](NC(=O)[C@H](CCC(=O)O)NC(=O)[C@@H](CO)NC(=O)[C@@H](NC(=O)[C@H](CC(C)C)NC(=O)[C@H](CC(C)C)NC(=O)[C@H](CC(C)C)NC(=O)[C@H](CC(C)C)NC(=O)[C@H](CS)NC(=O)[C@H](CO)NC(=O)[C@H](Cc1ccccc1)NC(=O)CNC(=O)[C@H](CCCNC(=N)N)NC(=O)[C@@H]1CCCN1C(=O)[C@H](C)NC(=O)[C@@H](N)CCSC)[C@@H](C)O)C(=O)N[C@@H](CC(=O)O)C(=O)N[C@@H](CC(C)C)C(=O)N1CCC[C@H]1C(=O)N[C@H](C(=O)N[C@@H](CCCCN)C(=O)N[C@@H](CCCNC(=N)N)C(=O)N[C@@H](CCCNC(=N)N)C(=O)N[C@@H](C)C(=O)O)C(C)C`, the EC50 is reported as 92.8 nM.
